Publication PMC6733935, “A convenient and efficient total solid-phase synthesis of DOTA-functionalized tumor-targeting peptides for PET imaging of cancer” (EJNMMI Research, 2019)
Square brackets hold non-standard residues; d marks the D form. Peptide text beside a SMILES is read from it. * marks the point of attachment. DOTA = O=C(O)CN1CCN(CC(=O)O)CCN(CC(=O)*)CCN(CC(=O)O)CC1; Cha = N[C@@H](CC1CCCCC1)C(=O)O; Nle = CCCC[C@H](N)C(=O)O; Ahx = NCCCCCC(=O)O

Assays:
[1] = system: BN/GRP receptor-positive MDA-MB-231 tumors; assay: Receptor blocking study in MDA-MB-231 tumor-bearing nude mice; format: in vivo
Protocol: For the receptor blocking studies, each animal was injected with excess cold of BN peptide (~ 200 μg) 20 min prior to the radiotracers injection. The animals (n = 2 per group) were sacrificed at 60 min post radiotracers injection and the % ID/g for the tumor and major organs was calculated as stated before.
^68Ga-labeled BN peptides were further investigated in nude mice carrying estrogen-independent and highly aggressive MDA-MB-231 xenografts in order to determine their potential for diagnosis of BN/GRP receptor-positive breast cancer in vivo (Table 4). […] (with 28% washout from the tumors over 2 h). […] When a blocking dose of 300 μg of nonradioactive BN peptide was injected intramuscularly for in vivo saturation of receptors 20 min prior to the administration of radiopeptide, it was observed that the uptake in the tumors was reduced by approximately 80% (0.47 ± 0.06% ID/g blocked vs. 2.32 ± 0.25% ID/g unblocked, P = 0.002), highlighting the specificity of the ^68Ga-labeled BN peptide for respective BN/GRP receptor-positive breast cancer cells. […] The tumor uptake values of other BN peptides varied from 1.78 ± 0.40% to 2.15 ± 0.33% ID/g at 1 h p.i and from 0.84 ± 0.13% to 1.37 ± 0.25% ID/g at 2 h p.i. (Table 4). With the blocking dose, good reduction in the tumors (from 51 to 80%) was attained validating the in vivo tumor receptor specificity of these radiolabeled BN peptides for BN/GRP receptor-positive breast cancer cells.

[2] = system: MDA-MB-231 tumor; assay: NanoPET/CT imaging of MDA-MB-231 tumor-bearing nude mice; format: in vivo; settings: 60 min p.i.
Protocol: PET/CT scans were performed using a preclinical NanoPET/CT scanner (Mediso, Hungary) on MDA-MB-231 tumor-bearing ~ 8-week-ld female nude mice. Mice (19–23 g) were anesthetized prior to the imaging with a mixture of (100 μL, subcutaneous injection) ketamine and xylazine. One hour after the intravenous injection of radiolabeled BN peptide (100 μL peptide, 100–150 μCi, total peptide dose ~ 100 ng) via the tail vein into the anesthetized mouse, each mouse was placed in the camera in prone position and static image was acquired for 30 min. The acquired raw data in these imaging studies were reconstructed to visible image form using Interveiw Fusion software (Mediso, Hungary).

CCCC[C@H](NC(=O)[C@H](Cc1c[nH]cn1)NC(=O)[C@H](CC1CCCCC1)NC(=O)[C@@H](NC(=O)[C@H](C)NC(=O)[C@H](Cc1c[nH]c2ccccc12)NC(=O)[C@H](CCC(N)=O)NC(=O)[C@H](CS)NC(=O)CNC(=O)CNC(=O)CCCCCNC(=O)CN1CCN(CC(=O)O)CCN(CC(=O)O)CCN(CC(=O)O)CC1)C(C)C)C(=O)N[C@@H](CCSC)C(N)=O [^68Ga-DOTA-Ahx-BN Cyclen, metal not drawn] ({DOTA-Ahx}-GGCQWAV[Cha]H[Nle]M-NH2)
Tumor uptake, blocked ([1]; blocking dose of 300 μg nonradioactive BN peptide 20 min prior to radiopeptide, 1 h p.i., n = 2 per group): 0.47 ± 0.06 % ID/g
reduction of uptake in the tumors with blocking dose ([1]; blocking dose of nonradioactive BN peptide 20 min prior, 1 h p.i.): approximately 80%
blockade of uptake in pancreas with blocking dose ([1]; same blocking dose, maximum blockade): 80%
Tumor visibility in PET image under blocking condition ([2]; in the presence of 300 μg cold BN peptide): hardly detectable
Tumor visibility in PET image ([2]; ~100 ng, ~100 μCi, unblocked): clearly visible
